Reference: the METLIN SMRT retention time set (Domingo-Almenara et al. 2019)

Assay: gradient 5% acetonitrile 3 min, to 50% in 2 min, to 85% in 15 min, held 3 min, 100 µL/min
Settings: column: Zorbax Extend-C18 2.1 x 50 mm; eluents: water / acetonitrile, 0.1% formic acid
Outline: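 Data were gathered over 3 months by HPLC coupled to a quadrupole time-of-flight mass spectrometer, operated in positive and negative ionization mode. Mixtures of ~100 pure standards ran on a Zorbax Extend-C18 column (2.1 × 50 mm, 1.8 μm) at 100 μL/min, with water and acetonitrile each containing 0.1% formic acid and dead and dwell volumes of 40 μL and 900 μL. Retention time was read from adduct peaks picked by computer and checked manually.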

SMILES | RP-LC retention time
CCc1nc2c(=O)n(CC(=O)N3CCCC(C)C3)nc(C)c2s1 (stereo not drawn) | 726 s
Cc1nc2cc(N3CCCC(C(=O)Nc4ccc5c(c4)OCO5)C3)cnc2nc1C (stereo not drawn) | 695 s
CCCN(CC1CCOC1)C(=O)Nc1cccc(C(F)(F)F)c1 (stereo not drawn) | 922 s
O=C(CN1CCN(Cc2ccc(F)cc2)C(=O)C1=O)N1CCN(c2cccc(Cl)c2)CC1 | 829 s
Cc1ccc(C)c(N2C(=O)CC(N3CCC(C(N)=O)CC3)C2=O)c1 (stereo not drawn) | 601 s
CCCN(C)C(=O)c1c(C)oc2c1CN(C(=O)COC)CC2 | 613 s
CC1=C(c2ccc(Cl)cc2)S(=O)(=O)N=C1N1CCCN(C(=O)NC(C)C)CC1 | 780 s
Cc1cnc(C(=O)N2CCC(c3noc(-c4ccccn4)n3)C2)cn1 (stereo not drawn) | 628 s
Cc1noc(C2(NS(=O)(=O)c3ccc(C#N)cc3)CCCCC2)n1 | 773 s
O=C(NCCCN1CCCCCC1)C(c1ccccc1)C1CCCCC1 (stereo not drawn) | 875 s
Cc1cc(C)c2nc(Nc3nccc(C)n3)nc(C)c2c1 | 640 s
COc1cccc(S(=O)(=O)N2CCc3nc[nH]c3C2)c1 | 602 s
CC(=O)N1CCc2cc(N3CC(C(=O)NC(C)C)CC3=O)ccc21 (stereo not drawn) | 613 s
Cc1cc2[nH]c(C(=O)Nc3c(F)cccc3F)c(CN3CCOCC3)c2s1 | 675 s
CCNC(=O)C1CCCN(c2nc3ncn(CC(=O)Nc4cc(Cl)ccc4C)c(=O)c3s2)C1 (stereo not drawn) | 741 s
Cc1ccc(NC(=O)Cn2cnc3nc(N4CCC(C(=O)NC5CC5)CC4)sc3c2=O)cc1 | 674 s
O=C(Nc1ccc(F)c(F)c1)c1cc2n(n1)CCCC2 | 887 s
Cc1ccc(-c2ccc(-n3nc(C)c(S(=O)(=O)NCc4ccc5c(c4)OCO5)c3C)nn2)cc1 | 1020 s
COc1ccccc1CC(=O)N1CCN(c2ncnc3c2CCC3)CC1 | 621 s

SMILES | RP-LC retention time
CCn1nccc1C(=O)Nc1ccc2c(c1)OCO2 | 693 s
Cc1ccc(-c2nnc3ccc(N4CCC(C(=O)NC5CC5)CC4)nn23)cc1 | 736 s
O=C(c1cnn2cc(Br)cnc12)N1CCCC1c1ccccc1F (stereo not drawn) | 841 s
Cc1cc(N2CCN(C(=O)c3ccc4c(c3)OCO4)CC2)nc(N2CCCCC2)n1 | 666 s
Cc1cccc(N2CCN(Cc3nc4nc(C)cc(N(C)C)n4n3)CC2)c1 | 634 s
Cc1cc2n(n1)CCCN2C(=O)CCC(=O)N1CCN(c2cccc(Cl)c2)CC1 | 778 s
O=C(Cn1c(=O)n(-c2ccc(F)cc2)c2ncccc21)NCCCN1CCOCC1 | 804 s
Cc1ccnn1-c1ccc(SCC(=O)Nc2ccc(F)cc2F)nn1 | 893 s
Cc1ccc(C)c(NC(=O)N2CCC(OC3CCN(S(C)(=O)=O)CC3)CC2)c1 | 771 s
CCOC(=O)C1CCN(C(=O)CN2C(=O)C3CCCCN3c3ccc(C(=O)N(C)C)cc32)CC1 (stereo not drawn) | 732 s
C=CCN(CC=C)C(=O)Nc1cc(OC)ccc1OC | 962 s
CN1CCN(CCCNC(=O)c2ccc3c(c2)N(C)C(=O)C2CCCCN32)CC1 (stereo not drawn) | 575 s
O=C(Nc1ccccc1F)C1CCN(c2cc(N3CCCCC3)ncn2)CC1 | 689 s
O=C(C1CCCN(c2nn3c(=O)c4c(nc3s2)CCCC4)C1)N1CCN(c2ccccn2)CC1 (stereo not drawn) | 588 s
O=C(Nc1cccc(-c2ccc(N3CCOCC3)nn2)c1)Nc1cccc(C(F)(F)F)c1 | 782 s
Cc1cccc(N2CCN(c3ccc4cc(S(=O)(=O)N5CCOCC5)ccc4n3)CC2)c1C | 1080 s
Cc1ccc(Nc2c(-c3ccc(O)cc3)nc3cc(C)ccn23)cc1 | 696 s
COC(=O)c1c(C)[nH]c(C(=O)N2CCC(CC(=O)NCC3CCCO3)CC2)c1C (stereo not drawn) | 632 s
COc1ccc2c(c1)CC(NC(=O)N1CCN(Cc3ccc4c(c3)OCO4)CC1)CO2 (stereo not drawn) | 652 s

Further lines, results first:

RP-LC retention time | SMILES
740 s | CCN1c2cc(F)ccc2C(=O)NC12CCN(C(=O)c1ccc(OC)c(OC)c1)CC2
954 s | CN(CCc1noc(-c2ccccc2)n1)C(=O)Nc1ccc(F)c(Cl)c1
608 s | Cc1ccc(-c2ncccc2CNC(=O)c2ccco2)cc1
616 s | CC(NC(=O)c1ccc2c(c1)nc1n2CCN(Cc2ccccc2)C1=O)c1cccnc1 (stereo not drawn)
860 s | Cc1ccc(C)c(-c2cc3c(=O)n(Cc4noc(-c5ccccc5)n4)ccn3n2)c1
568 s | O=C(Nc1ccccc1)c1ccc(N2CCC(NCc3ccc(F)c(F)c3)C2)nc1 (stereo not drawn)
715 s | CN1CCN(C(=O)Cn2cccc2-c2nc(-c3ccc(Cl)cc3)cs2)CC1
612 s | CCOc1ccccc1NC(=O)Nc1ccc2nc(N3CCN(C)CC3)cc(C)c2c1
658 s | COc1ccc(-c2cc(C(=O)O)c3ccccc3n2)cc1OC
675 s | O=C(NCc1ccc(Cl)cc1)c1ccc2c(c1)nc1n2CCN(Cc2ccccn2)C1=O
725 s | O=C(NCCn1c(=O)n(Cc2ccccc2)c2cccnc21)c1ccoc1
657 s | Cc1ccn2cc(C(=O)NCc3cc(F)ccc3F)nc2c1
793 s | O=C(Nc1nnc(C2CC(=O)N(c3ccccc3)C2)o1)c1ccc(C(F)(F)F)cc1 (stereo not drawn)
978 s | COc1ccc(Nc2cc(Cl)ccc2C(=O)O)cn1
796 s | COc1cccc(-c2cc3c(=O)n(CC(O)c4cccc(C#N)c4)ccn3n2)c1 (stereo not drawn)
976 s | CCOc1ccc2nc(NC(=O)C3CCCN3S(=O)(=O)c3cc(C(=O)OC)n(C)c3)sc2c1 (stereo not drawn)
758 s | O=C(NCC1CCN(C(=O)COc2ccccc2)CC1)c1ccc(F)c(F)c1
742 s | CC(=O)N(C)c1ccc(NS(=O)(=O)c2ccc(C)cc2)c([N+](=O)[O-])c1
560 s | COC(=O)c1ccc(C(=O)NCC(c2ccccc2Cl)N(C)C)cc1 (stereo not drawn)
818 s | CC(C(=O)N1CCCC1)C1CCN(C(=O)c2ccc3nc(-c4ccccc4)oc3c2)CC1 (stereo not drawn)
718 s | O=C(CCC(=O)N1CCN(C(c2ccccc2)c2ccccc2)CC1)Nc1noc2ccccc12
959 s | COc1ccc(-c2nc(-c3nnn(Cc4ccccc4)c3C)no2)cc1OC
710 s | O=C(C(=O)N1CCN(c2cccc(Cl)c2)CC1)c1c[nH]c2ccccc12
861 s | COc1ccc(OCC(=O)Nc2ccc3c(c2)N(C(=O)c2ccco2)CCC3)cc1
1090 s | CCNS(=O)(=O)c1cccnc1Nc1ccc(Cl)c(F)c1

RP-LC retention time | SMILES
797 s | COc1ccc2[nH]cc(CCNC(=O)CN3C(=O)CCn4nc(-c5cn(C)c6ccccc56)cc43)c2c1
640 s | CCN1CCCC1CNC(=O)C1c2ccccc2C(=O)N(CCOC)C1c1ccc(F)cc1 (stereo not drawn)
796 s | CN(C1CCc2nn(CC3CC3)c(=O)n2CC1)S(=O)(=O)c1ccccc1Cl (stereo not drawn)
964 s | COC(=O)C1=C(NC(=O)c2cccc(F)c2)CCS1
662 s | CN1CCN(CCNC(=O)C2CCCN(c3nc4ccccc4n(Cc4ccccc4)c3=O)C2)CC1 (stereo not drawn)
931 s | Cc1ccc(C(=O)N2CCC(COc3ccc(C(=O)NC(C)C)cc3)CC2)c(C)c1
750 s | O=C(c1c[nH]c2ccccc12)N1CCC2(CC1)NC(=O)N(Cc1ccccc1)C2=O
832 s | Cc1cc(C)cc(NC(=O)N2CCN(c3ccc(=O)n(-c4ccccc4)n3)CC2)c1
1120 s | Cc1cc(NC(=O)C(=O)c2cccn2C)ccc1Br
698 s | COc1cccc(CNC(=O)N2CCC(N3CCN(Cc4ccccc4)C(=O)C3=O)CC2)c1
941 s | O=C(COc1ccccc1)Nc1cnc(N2CCCCCC2)nc1
892 s | Cc1cc(C)cc(C(=O)N2CC3CN(S(=O)(=O)c4ccccc4)CC(C2)O3)c1
775 s | CCNC(=O)CCc1nc2ccccc2n(CC(=O)Nc2cccc(C(=O)OCC)c2)c1=O
596 s | O=C(CN1CCN(Cc2ccc(F)cc2)C1=O)NCCc1ccncc1
810 s | CC(C)c1ccc(-n2nc(N3CCN(C(=O)C4CC4)CC3)ccc2=O)cc1
627 s | Cc1nc(CCNC(=O)[C@H]2CCCN2C(=O)c2ccc(F)cc2)cs1
844 s | CCOc1ccc(NC(=O)N2CCC(n3cnc4ccc(Cl)cc4c3=O)CC2)cc1
916 s | O=C(NCc1ccc(Cl)cc1)C1CCN(S(=O)(=O)c2cc(C(=O)N3CCCC3)cs2)CC1
666 s | CCCNC(=O)C1CCN(c2ccc(SCC(=O)Nc3ccccc3C(=O)OC)nn2)CC1
926 s | O=C(Nc1ccnn1Cc1ccco1)C(c1ccccc1)c1ccccc1
657 s | COc1ccc(N2CCN(CC(O)c3cccc(OC)c3)CC2)cc1 (stereo not drawn)
621 s | CNC(=O)C1CCCN(c2nc3ncn(CC(=O)NCc4cccc(OC)c4)c(=O)c3s2)C1 (stereo not drawn)
923 s | COc1ccc(N2C(=O)C3N=NN(c4ccc(F)cc4)C3C2=O)cc1 (stereo not drawn)
1030 s | Cc1nc2c(sc3nc(-c4ccccc4)ccc32)c(=O)n1CC(=O)NCc1ccccc1Cl
859 s | CCc1ccc(NC(=O)C2CCN(S(=O)(=O)c3cc(C(=O)N4CCOCC4)cs3)CC2)cc1
